Here are results for 19 compounds from patent publication US20230002359A1, “PESTICIDALLY ACTIVE FUSED BICYCLIC HETEROAROMATIC COMPOUNDS” (priority 2019, published 2023).

Common to all, as to assay type: in vivo
The test system of test [1] is Plutella xylostella (Diamond Back Moth). The test can be described thus: Example B4: Plutella xylostella (diamond back moth), artificial diet, eggs, 24-well. Particulars: 192 h, application rate of 200 ppm, 8 days after infestation, eggs, read-out: control in at least one of the two categories (mortality or growth inhibition). The method, then:
24-well microtiter plates with artificial diet were treated with aqueous test solutions prepared from 10′000 ppm DMSO stock solutions by pipetting. After drying, Plutella eggs were pipetted through a plastic stencil onto a gel blotting paper and the plate was closed with it. The samples were assessed for mortality and growth inhibition in comparison to untreated samples 8 days after infestation.

In test [2] the test system is Chilo suppressalis (Striped Rice Stemborer). The test can be described thus: Example B3: Chilo suppressalis (striped rice stemborer), artificial diet, L2 larvae. Particulars: 144 h, application rate of 200 ppm, 6 days after infestation, L2 larvae, read-out: control in at least one of the three categories (mortality, anti-feedant effect, or growth inhibition). The protocol:
24-well microtiter plates with artificial diet were treated with aqueous test solutions prepared from 10′000 ppm DMSO stock solutions by pipetting. After drying, the plates were infested with L2 larvae (6-8 per well). The samples were assessed for mortality, anti-feeding effect, and growth inhibition in comparison to untreated samples 6 days after infestation. Control of Chilo suppressalis by a test sample is given when at least one of the categories mortality, anti-feedant effect, and growth inhibition is higher than the untreated sample.

The subject of test [3] is Diabrotica Balteata (Corn Root Worm). Kind of test: Example B1: Diabrotica balteata (corn root worm), maize sprouts sprayed, L2 larvae. The conditions noted are these: 96 h, application rate of 200 ppm, 4 days after infestation, L2 larvae, read-out: control in at least one of the two categories (mortality or growth inhibition). The method, then:
Maize sprouts placed onto an agar layer in 24-well microtiter plates were treated with aqueous test solutions prepared from 10′000 ppm DMSO stock solutions by spraying. After drying, the plates were infested with L2 larvae (6 to 10 per well). The samples were assessed for mortality and growth inhibition in comparison to untreated samples 4 days after infestation.

Test [4] has as its system Spodoptera littoralis (Egyptian Cotton Leaf Worm). Kind of test: Example B7: Spodoptera littoralis (Egyptian cotton leaf worm), cotton leaf discs sprayed, L1 larvae. Particulars: foliar, 72 h, application rate of 200 ppm, 3 days after infestation, L1 larvae, read-out: control in at least one of the three categories (mortality, anti-feedant effect, or growth inhibition). The method, then:
Cotton leaf discs were placed onto agar in 24-well microtiter plates and sprayed with aqueous test solutions prepared from 10′000 ppm DMSO stock solutions. After drying the leaf discs were infested with five L1 larvae. The samples were assessed for mortality, anti-feeding effect, and growth inhibition in comparison to untreated samples 3 days after infestation. Control of Spodoptera littoralis by a test sample is given when at least one of the categories mortality, anti-feedant effect, and growth inhibition is higher than the untreated sample.

Turning to `C[C@H](Nc1ccnc2c(C(F)(F)F)cc(C(F)(F)F)cc12)c1ncnn1-c1ccc(C#N)cn1` [P.251, 6-[5-[(1S)-1-[[6,8-bis(trifluoromethyl)-4-quinolyl]amino]ethyl]-1,2,4-triazol-1-yl]pyridine-3-carbonitrile], the percent control (mortality or growth inhibition) at 200 ppm in test [1] and in test [3] was no less than 80% throughout. Moreover, the percent control (mortality, anti-feedant effect or growth inhibition) at 200 ppm in test [2] and in test [4] was no less than 80% in each case.
With `CC(Nc1ncnc2c(OC(F)F)cc(Br)cc12)c1ncnn1-c1ccc(C#N)cn1` (centres unmarked) [P.244, 6-[5-[1-[[6-bromo-8-(difluoromethoxy)quinazo-lin-4-yl]amino]ethyl]-1,2,4-triazol-1-yl]pyridine-3-carbonitrile], the percent control (mortality or growth inhibition) at 200 ppm in test [1] and in test [3] was no less than 80% each time. Besides, the percent control (mortality, anti-feedant effect or growth inhibition) at 200 ppm in test [2] and in test [4] was no less than 80% throughout.
Turning to `CC(Nc1ncnc2c(C(F)(F)F)cc(Br)cc12)c1ncnn1-c1ccc(OC(F)F)cn1` (centres unmarked) [P.195, 6-bromo-N-[1-[2-[5-(difluoromethoxy)-2-pyridyl]-1,2,4-triazol-3-yl]ethyl]-8-(trifluoromethyl)quinazolin-4-amine], the percent control (mortality, anti-feedant effect or growth inhibition) at 200 ppm in test [2] and in test [4] was no less than 80% in each case.
Regarding `CC(Nc1ncnc2c(Cl)cc(C(F)(F)F)cc12)c1nccnc1-c1ccc(C#N)cn1` (centres unmarked) [P.121, 6-[3-[1-[[8-chloro-6-(trifluoromethyl)quinazolin-4-yl]amino]ethyl]pryazin-2-yl]pyridine-3-carbonitrile], the percent control (mortality, anti-feedant effect or growth inhibition) at 200 ppm in test [2] and in test [4] was no less than 80% in each case.
`CC(Nc1ncnc2c(Br)cc(OC(F)(F)F)cc12)c1ncnn1-c1ccc(C#N)cn1` (centres unmarked) [P.246, 6-[5-[1-[[8-bromo-6-(trifluoromethoxy)quinazo-lin-4-yl]amino]ethyl]-1,2,4-triazol-1-yl]pyridine-3-carbonitrile]: in test [1], the percent control (mortality or growth inhibition) at 200 ppm is no less than 80%. The percent control (mortality, anti-feedant effect or growth inhibition) at 200 ppm in test [2] and in test [4] was no less than 80% throughout.
For the compound `C[C@@H](c1ncnn1-c1ccc(C#N)cn1)N(C)c1ncnc2c(C(F)(F)F)cc(Br)cc12` [P.204, 6-[5-[(1S)-1-[[6-bromo-8-(trifluoromethyl)quinazolin-4-yl]-methyl-amino]ethyl]-1,2,4-triazol-1-yl]pyridine-3-carbonitrile], the percent control (mortality or growth inhibition) at 200 ppm in test [1] is no less than 80%. Moreover, the percent control (mortality, anti-feedant effect or growth inhibition) at 200 ppm in test [4] was no less than 80%.
For `CC(c1nccnc1-c1ccc(C#N)cn1)N(C)c1ncnc2c(C(F)(F)F)cc(Br)cc12` (centres unmarked) [P.125, 6-[3-[1-[[6-bromo-8-(trifluoromethyl)quinazolin-4-yl]-methyl-amino]ethyl]pyrazin-2-yl]pyridine-3-carbonitrile], the percent control (mortality or growth inhibition) at 200 ppm in test [1] is no less than 80%. Further, the percent control (mortality, anti-feedant effect or growth inhibition) at 200 ppm in test [4] is no less than 80%.
Take `CC(Nc1ncnc2c(Cl)c(F)c(Cl)cc12)c1ncnn1-c1ncccn1` (centres unmarked) [P.166, 6,8-dichloro-7-fluoro-N-[1-(2-pyrimidin-2-yl-1,2,4-triazol-3-yl)ethyl]quinazolin-4-amine]: in test [3], the percent control (mortality or growth inhibition) at 200 ppm is no less than 80%. In test [4], the percent control (mortality, anti-feedant effect or growth inhibition) at 200 ppm is no less than 80%.
With `C[C@H](c1ncnn1-c1ccc(C#N)cn1)N(C)c1ncnc2c(C(F)(F)F)cc(C(F)(F)F)cc12` [P.53, 6-[5-[(1R)-1-[[6,8-bis(trifluoromethyl)quina-zolin-4-yl]-methyl-amino]ethyl]-1,2,4-triazol-1-yl]pyridine-3-carbonitrile], in test [1], the percent control (mortality or growth inhibition) at 200 ppm is no less than 80%. Further, the percent control (mortality, anti-feedant effect or growth inhibition) at 200 ppm in test [2] and in test [4] was no less than 80% in each case.
With `CC(Nc1ncnc2c(Cl)cc(C(F)(F)F)cc12)c1ncnn1-c1ccc(C#N)cn1` (centres unmarked) [P.45, 6-[5-[1-[[8-chloro-6-(trifluoromethyl)quinazolin-4-yl]amino]ethyl]-1,2,4-triazol-1-yl]pyridine-3-carbonitrile], the percent control (mortality or growth inhibition) at 200 ppm in test [1] was no less than 80%. For the same compound, the percent control (mortality, anti-feedant effect or growth inhibition) at 200 ppm in test [2] and in test [4] was no less than 80% each time.
In the case of `CC(Nc1ncnc2c(Br)cc(C(F)(F)F)cc12)c1ncnn1-c1ccc(C#N)cn1` (centres unmarked) [P.42, 6-[5-[1-[[8-bromo-6-(trifluoromethyl)quinazolin-4-yl]amino]ethyl]-1,2,4-triazol-1-yl]pyridine-3-carbonitrile], the percent control (mortality or growth inhibition) at 200 ppm in test [1] was no less than 80%. Besides, the percent control (mortality, anti-feedant effect or growth inhibition) at 200 ppm in test [2] and in test [4] was no less than 80% in each case.
In the case of `CC(Nc1ncnc2c(C(F)(F)F)cc(Cl)cc12)c1ncnn1-c1ccc(C#N)cn1` (centres unmarked) [P.41, 6-[5-[1-[[6-chloro-8-(trifluoromethyl)quinazolin-4-yl]amino]ethyl]-1,2,4-triazol-1-yl]pyridine-3-carbonitrile], in test [1], the percent control (mortality or growth inhibition) at 200 ppm was no less than 80%. Moreover, the percent control (mortality, anti-feedant effect or growth inhibition) at 200 ppm in test [2] and in test [4] was no less than 80% each time.
On to `CC(c1nccnc1-c1ccc(C#N)cn1)N(C)c1ncnc2c(C(F)(F)F)cc(Cl)cc12` (centres unmarked) [P.275, 6-[3-[1-[[6-chloro-8-(trifluoromethyl)quinazolin-4-yl]-methyl-amino]ethyl]pyrazin-2-yl]pyridine-3-carbonitrile], for which the percent control (mortality, anti-feedant effect or growth inhibition) at 200 ppm in test [2] and in test [4] was no less than 80% each time.
For `CC(c1nccnc1-c1ncccn1)N(CC1CC1)c1ncnc2c(Cl)cc(C(F)(F)F)cc12` (centres unmarked) [P.81, 8-chloro-N-(cyclopropylmethyl)-N-[1-(3-pyrimidin-2-ylpyrazin-2-yl)ethyl]-6-(trifluoromethyl)quinazolin-4-amine], the percent control (mortality or growth inhibition) at 200 ppm in test [1] and in test [3] was no less than 80% in each case. Also, the percent control (mortality, anti-feedant effect or growth inhibition) at 200 ppm in test [2] is no less than 80%.
As for `CC(c1nccnc1-n1nccn1)N(C)c1ncnc2c(OC(F)F)cc(Br)cc12` (centres unmarked) [P.180, 6-bromo-8-(difluoromethoxy)-N-methyl-N-[1-[3-(triazol-2-yl)pyrazin-2-yl]ethyl]quinazolin-4-amine], the percent control (mortality or growth inhibition) at 200 ppm in test [1] and in test [3] was no less than 80% in each case. Moreover, in test [2], the percent control (mortality, anti-feedant effect or growth inhibition) at 200 ppm is no less than 80%.
On to `CC(Nc1ncnc2c(C(F)(F)F)cc(Cl)cc12)c1ncnn1-c1ccc(F)cn1` (centres unmarked) [P.234, 6-chloro-N-[1-[2-(5-fluroo-2-pyridyl)-1,2,4-triazol-3-yl]ethyl]-8-(trifluoromethyl)quinazolin-4-amine], for which the percent control (mortality or growth inhibition) at 200 ppm in test [1] and in test [3] was no less than 80% in each case. Further, in test [4], the percent control (mortality, anti-feedant effect or growth inhibition) at 200 ppm was no less than 80%.
For the compound `CC(Nc1ncnc2c(C(F)(F)F)cc(C(F)(F)F)cc12)c1ncnn1-c1ccc(OC(F)F)cn1` (centres unmarked) [P.193, N-[1-[2-[5-(difluoromethoxy)-2-pyridyl]-1,2,4-triazol-3-yl]ethyl]-6,8-bis(trifluoromethyl)quina-zolin-4-amine], the percent control (mortality or growth inhibition) at 200 ppm in test [1] and in test [3] was no less than 80% throughout. Moreover, the percent control (mortality, anti-feedant effect or growth inhibition) at 200 ppm in test [2] was no less than 80%.
`CC(Nc1ncnc2c(Br)cc(C(F)(F)F)cc12)c1ncnn1-c1ccc(F)cn1` (centres unmarked) [P.186, 8-bromo-N-[1-[2-(5-fluoro-2-pyridyl)-1,2,4-triazol-3-yl]ethyl]-6-(trifluoromethyl)quinazolin-4-amine]: the percent control (mortality or growth inhibition) at 200 ppm in test [1] and in test [3] was no less than 80% in each case. The percent control (mortality, anti-feedant effect or growth inhibition) at 200 ppm in test [2] is no less than 80%.
For the compound `CC(Nc1nc(Cl)nc2c(C(F)(F)F)cc(C(F)(F)F)cc12)c1ncnn1-c1ncccn1` (centres unmarked) [P.25, 2-chloro-N-[1-(2-pyrimidin-2-yl-1,2,4-triazol-3-yl)ethyl]-6,8-bis(trifluoromethyl)quinazolin-4-amine], the percent control (mortality, anti-feedant effect or growth inhibition) at 200 ppm in test [2] and in test [4] was no less than 80% in each case. Besides, the percent control (mortality or growth inhibition) at 200 ppm in test [3] was no less than 80%.
